One series concerns the target T1, AtABCG25 protein (Arabidopsis thaliana, UniProt Q84TH5, L179I).
T1 construct: Full-length cDNA of the AtABCG25 (Atlg71960) gene was obtained from the RIKEN BioResource Center; made in house; host or cells: Sf9 insect cells (Spodoptera frugiperda), BaculoGold baculovirus system; membrane vesicles
It is filed as biochemical. Particulars: for Promotion of ABA uptake by nucleotide (energy dependence): 4 mM of the indicated nucleotide; for Inhibition of ATP-dependent ABA uptake by nucleotide: 4 mM of the indicated nucleotide in addition to ATP. As to the method: Such activity is measured using the vesicle transport assay method described in the Examples below. […] The candidate of ABA transporter protein is expressed in such cell membrane. The membrane comprises inside-out membrane vesicles in which the inside and the outside are inverted.
A BaculoGold™ baculovirus expression vector system (BD PharMingen) was used to prepare the recombinant baculovirus. Sf9 insect cells (Spodoptera frugiperda) were infected with the virus and cultured in SF900-SFM medium (Invitrogen) at 27° C. for 72 hours in a shaking incubator. Cells were collected by centrifugation at 1,100×g for 10 minutes and then disrupted by nitrogen cavitation in 150 mM NaCl. 3 mM CaCl2, 2 mM MgCl2, 0.1 mM EGTA, and 10 mM Tris-HCl (pH 7.4). Undisrupted cells, nuclear debris, and mitochondria were pelleted by centrifugation at 2,600×g for 10 minutes. The supernatant was centrifuged at 100,000×g for 30 minutes, and the pellet was resuspended in 70 mM KCl, 7.5 mM MgCl2, and 50 mM MOPS-Tris (pH 7.0). Membrane vesicles were stored by freezing in a deep freezer until use. Concentration of the protein was measured using the BCA protein assay kit (Pierce) with bovine serum albumin as a control. To confirm the production of the AtABCG25 proteins in the Sf9 cells by Western blot analysis, an anti-AtABCG25 antibody was obtained by immunizing a rabbit with a synthetic peptide (Operon Biotechnologies). This synthetic peptide consisted of 3 types of 12 to 14 amino acid residues from the Arabidopsis AtABCG25 protein, designed based on positions 69 to 82 ([…]), positions 132 to 143 ([…]), and positions 328 to 340 ([…]). Membrane proteins were solubilized using 4% SDS and subjected to 10% SDS-PAGE. Proteins were transferred to a polyvinylidene difluoride membrane and probed using a rabbit anti-AtABCG25 antibody and horseradish-peroxidase-conjugated donkey anti-rabbit IgG. Specific immunoreactive proteins were detected by exposure to an autoradiography film using a chemiluminescence detection system (ECL-plus, Amersham Biosciences).
An experiment of membrane transport was carried out using the rapid filtration technique (Otsuka, M. et al., 2005, Proc. Natl. Acad. Sci., U.S.A., 102: 17923-17928). […] The transport medium was passed through a 0.45-μm nitrocellulose filter (Millipore), and the filter was washed with 6 ml of ice-cooled stop buffer (70 mM KCl, 7.5 mM MgCl2, 50 mM MOPS-Tris, pH 7.0). The radioactivity retained on the filter was determined using a liquid scintillation counter (Tri-Carb2800TRs; PerkinElmer). Membrane vesicles from Sf9 cells containing only the vector were used as the controls.

The subject of series [1] is CC1=CC(=O)CC(C)(C)C1(O)/C=C/C(C)=C\C(=O)O. The series can be described thus: cells, lysate or membranes named. Particulars: other: membrane vesicles expressing AtABCG25, ATP-dependent uptake measured for 15 seconds at indicated ABA concentrations; 27.0 °C.
Series [2] deals with AtABCG25 promoter (pAtABCG25::GUS reporter). The series can be described thus: GUS staining of pAtABCG25::GUS transgenic plants after ABA treatment. Type of series: in vivo, Arabidopsis. Particulars: 10 μM ABA. Here is the method: RNA was extracted from Arabidopsis plants for RT-PCR using the RNeasy Plant Mini Kit (Qiagen). RT-PCR was carried out using AtABCG25_RT-PCR—5′ (5′-[…]-3′ (SEQ ID NO: 8)) and AtABCG25_RT-PCR—3′ (5′-[…]-3′ (SEQ ID NO: 9)) primers with the PrimeScript One Step RT-PCR kit (Takara Bio). The Actin2 transcript as a control was amplified using Actin2RT-F (5′-[…]-3′ (SEQ ID NO: 10)) and Actin2RT-R (5″-[…]-3′ (SEQ ID NO: 11)) primers. GUS staining was carried out according to the standard protocol (Sundaresan, V. et al., 1995, Genes Dev9: 1797-1810). The plants stained with GUS were observed under a SZ61 stereoscopic microscope (Olympus), and digital images were obtained using the DS-L1 CCD digital camera (Nikon). Finer images were photographed using a BX60 upright microscope (Olympus) and a VB-7010 CCD camera (Keyence). For transgenic lines to be examined for GUS expression from the AtABCG25 promoter a 2-kb AtABCG25 promoter region was prepared by amplifying the region using AtABCG25pro_Forward (5′-[…]-3′ (SEQ ID NO: 12)) and AtABCG25pro_Reverse (5′-[…]-3′ (SEQ ID NO: 13)) primers with KOD-plus polymerase (Toyobo), cloning the amplified product into the pENTR/D/TOPO vector (Invitrogen), and integrating the resultant into the GUS-fusion vector pBGGUS (Kubo, M. et al., 2005, Genes Dev 19: 1855-1860).

T1 sequence (Q84TH5 whole entry L179I): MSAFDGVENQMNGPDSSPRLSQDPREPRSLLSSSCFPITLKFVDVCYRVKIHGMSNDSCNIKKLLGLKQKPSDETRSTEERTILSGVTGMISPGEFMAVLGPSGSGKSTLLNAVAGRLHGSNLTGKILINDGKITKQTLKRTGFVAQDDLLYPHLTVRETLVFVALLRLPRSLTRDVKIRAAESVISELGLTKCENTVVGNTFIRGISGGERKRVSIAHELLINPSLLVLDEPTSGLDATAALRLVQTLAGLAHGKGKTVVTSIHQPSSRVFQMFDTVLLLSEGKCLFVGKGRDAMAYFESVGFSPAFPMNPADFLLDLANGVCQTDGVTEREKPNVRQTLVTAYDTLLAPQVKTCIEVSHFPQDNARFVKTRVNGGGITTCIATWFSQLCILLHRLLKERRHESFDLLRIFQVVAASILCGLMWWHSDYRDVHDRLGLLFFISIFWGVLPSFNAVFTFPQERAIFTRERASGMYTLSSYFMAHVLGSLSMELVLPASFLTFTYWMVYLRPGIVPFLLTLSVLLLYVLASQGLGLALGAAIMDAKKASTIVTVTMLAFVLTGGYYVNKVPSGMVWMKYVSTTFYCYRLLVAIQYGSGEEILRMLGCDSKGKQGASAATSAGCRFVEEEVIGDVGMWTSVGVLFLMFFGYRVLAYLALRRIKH

For `CC1=CC(=O)CC(C)(C)C1(O)/C=C/C(C)=C\C(=O)O` (single isomer, unassigned; (-)) [(−)ABA], on AtABCG25 protein (in the presence of ATP and compound, (+)ABA at a 10-fold concentration), the “Cis-inhibition of ATP-dependent ABA uptake (substrate specificity)” value was “not influenced”.

As a reminder, the Km is the concentration of substrate that gives half-maximal velocity. Turning to “AtABCG25 protein (Arabidopsis thaliana; L179I)”, in series [1], the Km turned out to be 0.23 µM and the Vmax worked out at 6.2 μmol/min/mg protein.

For `Nc1ncnc2c1ncn2[C@@H]1O[C@H](COP(=O)(O)OP(=O)(O)OP(=O)(O)O)[C@@H](O)[C@H]1O` [ATP, adenosine triphosphate], the “Promotion of ABA uptake by nucleotide (energy dependence)” value (“Promotion of ABA uptake by nucleotide” below) on AtABCG25 protein is on record as “significantly promoted”.

In the case of `[O]=[V]([O-])([O-])[O-]` [Vanadate], the “Inhibition of ATP-dependent ABA uptake by vanadate” value on AtABCG25 protein (1 mM vanadate in addition to ATP) is listed as “inhibited”. On to `CC1=CC(=O)CC(C)(C)C1(O)/C=C/C(C)=C\C(=O)O` (racemic) [ABA, abscisic acid], for which the “ABA uptake in the presence of ATP, full activity (100%)” value at AtABCG25 protein (at 15 seconds, in the presence of ATP, no competing compound) was found to be 8.3 μmol/mg protein. Besides, the “Expression level of the GUS reporter after ABA treatment” value in series [2] is reported as “increased”. With `Nc1ncnc2c1ncn2[C@@H]1O[C@H](COP(=O)(O)OP(=O)(O)O)[C@@H](O)[C@H]1O` [ADP], at AtABCG25 protein, the “Promotion of ABA uptake by nucleotide” value is listed as “neither ADP nor AMP promoted” and the “Inhibition of ATP-dependent ABA uptake by nucleotide” value is listed as “inhibited”. On to `Nc1ncnc2c1ncn2[C@@H]1O[C@H](COP(=O)(O)O)[C@@H](O)[C@H]1O` [AMP], for which, on AtABCG25 protein, the “Promotion of ABA uptake by nucleotide” value is listed as “neither ADP nor AMP promoted” and the “Inhibition of ATP-dependent ABA uptake by nucleotide” value is on record as “did not exhibit any inhibitory effect”.
